Laboratory results taken from paper PMC11335189, “Revealing molecular determinants governing mambalgin-3 pharmacology at acid-sensing ion channel 1 variants” (Cellular and Molecular Life Sciences: CMLS, 2024).
Like-named read-outs stand apart in the source and are kept apart here. Positions of bridges follow the written chain, without caps; N, C: chain ends. No end group written: not given here.

Tests used:
hASIC1b = biological target: T1, hASIC1b (Homo sapiens, UniProt P78348); assay: TEVC in Xenopus laevis oocytes expressing hASIC1b; assay type: cell-based; conditions: for remaining activity at 1 µM: 1 µM peptide, conditioning pH 7.45, mean, n ≥ 5, read-out: I/Icontrol
T1 construct: expressed in transfected cells; host or cells: Xenopus laevis oocytes (cRNA injection)
T1 sequence (P78348 1-562 isoform P78348-3): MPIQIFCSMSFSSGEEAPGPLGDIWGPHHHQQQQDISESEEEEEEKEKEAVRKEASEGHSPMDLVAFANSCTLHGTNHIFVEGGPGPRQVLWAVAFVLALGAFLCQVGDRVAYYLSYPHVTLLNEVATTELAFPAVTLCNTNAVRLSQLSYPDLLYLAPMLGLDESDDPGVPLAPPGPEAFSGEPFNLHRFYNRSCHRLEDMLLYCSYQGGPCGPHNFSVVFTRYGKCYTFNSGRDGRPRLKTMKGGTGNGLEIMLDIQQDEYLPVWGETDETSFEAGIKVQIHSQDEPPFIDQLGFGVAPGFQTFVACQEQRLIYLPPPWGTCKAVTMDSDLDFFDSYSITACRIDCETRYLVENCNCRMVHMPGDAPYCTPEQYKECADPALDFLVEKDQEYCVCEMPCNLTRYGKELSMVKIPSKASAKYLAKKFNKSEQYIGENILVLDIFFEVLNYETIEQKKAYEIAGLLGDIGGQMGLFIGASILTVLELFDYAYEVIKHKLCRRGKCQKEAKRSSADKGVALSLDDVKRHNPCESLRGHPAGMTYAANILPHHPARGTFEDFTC
Method: (§1) Two-electrode voltage-clamp (TEVC) experiments using Xenopus laevis oocytes were conducted as previously described. Briefly, oocytes were surgically removed from anaesthetised female frogs, then treated with collagenase (~ 1 mg/ml, Sigma type I) for 2 h under agitation at room temperature. cRNAs were synthesised using a mMessage mMachine T7 or SP6 transcription kit (Thermo Fisher Scientific Australia Pty Ltd, Scoresby, VIC, Australia) and injected into healthy stage V–VI oocytes at 0.2–20 ng per cell. Different amounts of RNA were used for different wild-type and mutant constructs, as well as to titrate expression levels to record over multiple days and maintaining consistent expression levels. Injected oocytes were incubated at 17 °C for 1–7 days in 50% Leibovitz’s L-15 medium (Gibco, Thermo Fisher Scientific Australia Pty Ltd, Scoresby, VIC, Australia), supplemented with 25 µg/mL gentamicin, 25 µg/mL streptomycin, and 2.5% fetal horse serum. Membrane currents were recorded 2–7 days after cRNA-injection under voltage-clamp at -60 mV (Axon Axoclamp 900 A, Molecular Devices, CA, USA) using two standard glass microelectrodes of 0.5–1 MΩ resistance when filled with 3 M KCl solution. Data were sampled at 2 kHz and filtered at 0.1 kHz using Clampex 10 software (Molecular Devices, CA, USA). A microperfusion system was used to allow fast extracellular solution exchange (bath volume = ~ 30 µL). All experiments were performed at room temperature (18–23 °C) in ND96 (96 mM NaCl, 2 mM KCl, 1.8 mM CaCl2, 2 mM MgCl2, 5 mM HEPES, pH 7.45). In solutions below pH 6.8, HEPES was replaced by MES. All solutions containing peptides contained 0.05% fatty acid free bovine serum albumin to decrease adsorptive losses of peptide to plasticware. For all channels tested, control current magnitudes between 500 and 9000 nA when tested using a conditioning pH of 7.45 and stimulating pH of 6 (except for the chimeras that were stimulated with pH 5) were used for data collection. Before recording any experiments, oocytes were stimulated multiple times with low pH to minimise and stabilise tachyphylaxis/desensitisation, which were then accounted for during analysis. Complete recovery of currents from Ma-3 induced modulation within 3 min of washout at all channels tested allowed for correction for tachyphylaxis/desensitisation during analyses.
(§2) Specific to this work, the standard protocol was for oocytes to be conditioned at pH 7.45 and channels stimulated every 60 s using a 5 s pH 5 or 6 application, unless stated otherwise. For all concentration-response data, peptides were applied for ~ 50 s between each low pH stimulus application. Activation curves were determined by conditioning oocytes at pH 8 (Fig. 2e − g; and Fig. 5a and b) or 7.45 (Fig. 6; and Supplementary Fig. 2d and c) for 55 s and applying low pH stimuli from 7.25 to 5.0 for 5 s. Steady-state desensitisation (SSD) was determined by applying conditioning solutions of pH values from 8 to 6 for 115 s prior to stimulation by a pH drop to 5 for 5 s. Ma-3 was only applied in the conditioning solution for activation and steady-state desensitisation curves in the presence of peptide. Control pH-dependence curves were determined in the absence of any Ma-3. When assessing the effect of Ma-3 on the rASIC1a: ASIC1b chimeras (C92 and C166; and for the comparative wild-type data), the conditioning pH was 7.45 and stimulating pH 5 (Fig. 3b). Specific details of the conditioning and stimulating pH are noted in each figure legend.
(§3) Data were analysed using pCLAMP-Clampfit software (Version 11, Molecular Devices, CA, USA) and GraphPad Prism 9.5 and 10.2.2 (GraphPad Software, San Diego, CA, USA). To obtain the Hill coefficient (nH) and half-maximal response (EC50, IC50, or pH50) the Hill equation was fitted to normalised concentration-response curves by using a non-linear fit to the data of a four-parameter logistic equation (“sigmoidal dose-response” in GraphPad Prism 9.5). […]

rASIC1b = biological target: T2, rASIC1b (Rattus norvegicus, UniProt P55926); assay: TEVC in Xenopus laevis oocytes expressing rASIC1b; assay type: cell-based; conditions: for remaining activity at 0.3 µM: 300 nM peptide, conditioning pH 7.45, stimulating pH 6, read-out: I/Icontrol; for loss in potency relative to wild-type Ma-3 (estimated): peptides applied at pH 7.45, stimulated at pH 6
T2 construct: expressed in transfected cells; host or cells: Xenopus laevis oocytes (cRNA injection)
T2 sequence (P55926 1-559 isoform P55926-3): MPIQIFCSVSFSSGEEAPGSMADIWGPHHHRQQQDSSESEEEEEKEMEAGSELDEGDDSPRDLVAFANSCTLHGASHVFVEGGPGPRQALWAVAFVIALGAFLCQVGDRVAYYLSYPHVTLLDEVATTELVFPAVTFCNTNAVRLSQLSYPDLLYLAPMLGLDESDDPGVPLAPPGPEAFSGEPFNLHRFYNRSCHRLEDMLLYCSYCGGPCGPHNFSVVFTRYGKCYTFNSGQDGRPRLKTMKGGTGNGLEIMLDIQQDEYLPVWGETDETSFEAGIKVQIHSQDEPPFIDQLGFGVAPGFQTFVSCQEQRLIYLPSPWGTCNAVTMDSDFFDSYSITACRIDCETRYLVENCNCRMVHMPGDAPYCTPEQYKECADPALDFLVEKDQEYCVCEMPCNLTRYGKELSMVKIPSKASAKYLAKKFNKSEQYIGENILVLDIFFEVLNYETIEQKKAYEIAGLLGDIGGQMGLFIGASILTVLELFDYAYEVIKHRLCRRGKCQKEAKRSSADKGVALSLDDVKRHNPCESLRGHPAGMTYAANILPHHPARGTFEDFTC
Method: as §1, §2, §3

[1] = 300 nM Ma-3, conditioning pH 7.45, Hill fit, n = 5–6

Substance | remaining activity at 1 µM (hASIC1b; pH 5 evoked currents) | remaining activity at 1 µM (hASIC1b; pH 6 evoked currents) | remaining activity at 0.3 µM (rASIC1b; n = 5–8) | loss in potency relative to wild-type Ma-3 (estimated) (rASIC1b) | pH50 of activation in presence of Ma-3 (hASIC1b; [1]) | difference in potency between pH 5 and pH 6 stimulus conditions (hASIC1b; potentiation at pH 6 vs inhibition at pH 5, conditioning pH 7.45) | shift in the activation curve (rASIC1b; 100 nM Ma-3, conditioning pH 8) | slope of activation curve in presence of Ma-3 (rASIC1b; 100 nM Ma-3, conditioning pH 8, mean ± SEM) | shift of the SSD curve towards alkaline values (rASIC1b; 100 nM Ma-3, stimulating pH 5) | slope of SSD curve in presence of Ma-3 (rASIC1b; 100 nM Ma-3, stimulating pH 5, mean ± SEM) | pH50 of activation in presence of Ma-3 (rASIC1b; 100 nM Ma-3 in conditioning solution, conditioning pH 8, Hill fit, mean ± SEM, n = 5–8) | pH50 of steady-state desensitisation (SSD) in presence of Ma-3 (rASIC1b; 100 nM Ma-3 in conditioning solution, stimulating pH 5, Hill fit, mean ± SEM, n = 5–8) | t1/2 of onset of inhibition (rASIC1b; 300 nM Ma-3 (~ 10 times the IC50) applied at pH 7.45 for different durations, single exponential fit, n = 5) | pH50 of activation in presence of Ma-3 (rASIC1b; [1]) | time of Ma-3 application to maximal inhibition (rASIC1b; 300 nM Ma-3 at pH 7.45) | t1/2 of recovery of currents from inhibition (washout) (rASIC1b; after 300 nM Ma-3, pH 7.45 conditioning, single exponential fit, n = 5)
H-SLKCYQHGAVVTCHRDMKFCYHNIGMPFRNLKLILQGCSSSCSETENNKCCSTDRCNK (disulfide 4-20, 13-38, 42-50, 51-56 (inferred)) [K8A] | 75% | 165% | 91% | > 30 fold | – | – | – | – | – | – | – | – | – | – | – | –
H-SLKCYQHGKVVTCHRDAKFCYHNIGMPFRNLKLILQGCSSSCSETENNKCCSTDRCNK (disulfide 4-20, 13-38, 42-50, 51-56 (inferred)) [M16A] | 80% | 188% | 80% | > 30 fold | – | – | – | – | – | – | – | – | – | – | – | –
H-SLKCYQHGKVVTCHRDMKFCYHNIGMPFRNLKLILQGCSSSCSETENNKCCSTDRCNK (disulfide 4-20, 13-38, 42-50, 51-56 (inferred)) [Ma-3, mambalgin-3] | 69% | 161% | 40% | – | 6.20 | ~ 10 fold | no shift | 3.69 ± 0.56 | 0.06 pH units | 2.41 ± 0.51 | 6.03 ± 0.02 | 7.04 ± 0.04 | 3.8 s | 6.17 | ≤ 45 s | 12.8 s
